The values that follow come from US6538037B2, “Methods for preparation and use of 1α,24(S)-dihydroxyvitamin D2” (Bone Care International, Inc., priority 1991, dated 2003).

The test system of data set [1] is vitamin D receptor positive tumor. Briefly: General treatment of cancers, open-label study. The class given is in vivo, human. The settings on record: after 18 months. An excerpt: Patients with a known vitamin D receptor positive tumor (e.g., adenocarcinoma of the prostate, breast, lung, colon or pancreas, or transitional cell carcinoma of the bladder, or melanoma) participate in an open-label study of 1α,24(S)-(OH)2D2. Patients are placed on a reduced calcium diet prior to treatment, to help minimize intestinal absorption and allow ever higher doses of 1α,24(S)-dihydroxyvitamin D2. This reduced calcium diet may be continued for the duration of treatment, and for one week after the last dose of the 1α,24(S)-dihydroxyvitamin D2. The diet ideally restricts daily calcium intake to 400-500 mg. Patients also discontinue use of any vitamin supplements or vitamin D replacement therapies. Each patient is also asked to drink 4-6 cups of fluid more than usual intake to assure adequate oral hydration.
Each subject is monitored at regular intervals for: (1) hypercalcemia, hyperphosphatemia, hypercalciuria, hyperphosphaturia and other toxicity; (2) evidence of changes in the progression of metastatic disease; and (3) compliance with the prescribed test drug dosage.
The dosing regimen is typically on a daily dose basis of 10 μg or 20 μg per day to about 100 μg/day for 24 months. Alternatively, a non-daily dosing regimen can be used, e.g., 40 μg given every other day, 100 μg given once a week. […]

Data set [2] in a line: Preventive treatment of bone mass loss in postmenopausal osteoporotic women. The format is in vivo, human. To be noted: at or above 1.0 μg/day, 24 to 36 months. Here is the method:
A clinical study is conducted with postmenopausal osteoporotic out-patients having ages between 55 and 75 years. The study involves up to 120 patients randomly divided into three treatment groups and continues for 24 to 36 months. Two of the treatment groups receive constant dosages of 1α,24(S)-dihydroxyvitamin D2 (u.i.d.; two different dose levels at or above 1.0 μg/day) and the other group receives a matching placebo. All patients maintain a normal intake of dietary calcium (500 to 800 mg/day) and refrain from using calcium supplements. Efficacy is evaluated by pre-and post-treatment comparisons of the patient groups with regard to (a) total body calcium retention, and (b) radial and spinal bone mineral density as determined by dual-photon absorptiometry (DPA) or dual-energy x-ray absorptiometry (DEXA). Safety is evaluated by comparisons of urinary hydroxyproline excretion, serum and urine calcium levels, creatinine clearance, blood urea nitrogen, and other routine determinations.

The test system of another data set is Human keratinocytes. Briefly: Epidermal cell differentiation and proliferation testing. The format is cell-based. The settings on record: 0.05 to 5 μg/ml, versus control cultures. On the procedure: Human keratinocytes are cultured according to known modifications of the system originally described by Rheinwald and Green (Cell, vol.6, p.331 (1975)). The 1α,24(S)-dihydroxyvitamin D2, dissolved in ethanol, is added to cells to yield a variety of concentrations between 0.05 and 5 μg/ml with the ethanol concentration not to exceed 0.5% v/v. Control cultures are supplemented with ethanol at a final concentration of 0.5% v/v. Differentiation and proliferation of epidermal cells in culture is examined by:
1. quantitation of cornified envelopes;
2. quantitation of cell density of cells attached to disks;
3. monitoring transglutaminase activity; or
4. monitoring DNA synthesis by incorporation of ^3H-thymidine.

Data set [3] has as its system human cancer cell lines BCA-1 or ZR-75-1 (breast) and COL-1 (colon). Nature of the data set: Antiproliferative activity in human cancer cell lines (thymidine incorporation). The format is cell-based. To be noted: dose-response studies. Here is the method:
Dose-response studies are conducted with 1α,24(S)-(OH)2D2 in a battery of human cancer cell lines. These cell lines include, but are not limited to, the following: BCA-1 or ZR-75-1 (breast) and COL-1 (colon), as described by Shieh, H. L. et al. Chem. Biol. Interact., vol. 81, pp. 35-55 (1982). In this study, appropriate solvents are used as negative controls.

For data set [4], the target named is T1, vitamin D serum binding protein (DBP) (Rattus norvegicus, UniProt P04276).
T1 construct: assessed using vitamin D deficient rat serum; from tissue; host or cells: vitamin D deficient rat serum
T1 sequence (P04276 17-476): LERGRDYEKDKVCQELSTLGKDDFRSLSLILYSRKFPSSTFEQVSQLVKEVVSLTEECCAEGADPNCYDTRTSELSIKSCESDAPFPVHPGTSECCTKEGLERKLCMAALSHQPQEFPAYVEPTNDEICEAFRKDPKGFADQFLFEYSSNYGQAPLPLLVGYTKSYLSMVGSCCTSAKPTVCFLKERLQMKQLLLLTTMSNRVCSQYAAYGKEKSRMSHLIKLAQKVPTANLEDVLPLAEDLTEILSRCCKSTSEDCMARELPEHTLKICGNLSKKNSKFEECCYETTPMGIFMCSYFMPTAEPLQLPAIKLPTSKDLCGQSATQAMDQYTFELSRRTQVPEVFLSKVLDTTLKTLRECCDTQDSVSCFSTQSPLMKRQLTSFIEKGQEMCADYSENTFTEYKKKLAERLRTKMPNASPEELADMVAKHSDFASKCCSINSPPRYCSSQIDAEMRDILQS
Nature of the data set: Affinity for vitamin D serum binding protein using vitamin D deficient rat serum. An excerpt:
In addition, the weak binding by the DBP was indicative of more rapid clearance, allowing for low toxicity.

A further data set has as its system Hep 3B cells. Briefly: Metabolism of 1α-OH-D2 in Hep 3B cells. The class given is in vitro ADME, human. The settings on record: photodiode array spectrophotometry. On the procedure: Substantially pure 1α-(OH)D2 was obtained from Bone Care International, Inc. of Madison, Wis. The 1α-(OH)D2 was cultured for 48 hours with cells derived from a human hepatoma, Hep 3B, in medium devoid of fetal calf serum using known methods in the art.
Lipid extracts of the combined medium and cells were generated by known methods in the art and were subjected to high pressure liquid chromatography (HPLC) on Zorbax-S1L developed with hexane/isopropano/methanol (91:7:2). The putative 1α,24(?)-(OH)2D2 metabolite eluted between the parent 1α-(OH)D2 and standard 1α,25-(OH)2D2 (also obtained from Bone Care International, Inc. of Madison, Wis.). (As used herein, the term “1α,24(?)-(OH)2D2” is meant to indicate that the epimeric form has not been identified.) The 1α,24(?)-(OH)2D2 was further purified by this HPLC system before the metabolite's identification was undertaken using mass spectrometry analysis.
Hep 3B cells were incubated with 1α-OH-D2, as described above, at final concentrations of 1, 10, or 100 nM (Experiment 1), and 1 or 10 μM (Experiment 2) and 1α,24(S)-(OH)2D2 was extracted and purified. The 1α,24(S)-(OH)2D2 and 1α,25-(OH)2D2 metabolites were quantitated by recovered radiolabel (Experiment 1) or by photodiode array spectrophotometry (Experiment 2).

Like-named read-outs stand apart in the source and are kept apart here.

`C=C1/C(=C\C=C2/CCC[C@]3(C)[C@@H]([C@H](C)/C=C/[C@@](C)(O)C(C)C)CC[C@@H]23)C[C@@H](O)C[C@@H]1O` [1α,24(S)-(OH)2D2, 1α,24(S)-dihydroxyvitamin D2]: the “progress of metastatic disease (CAT scans, X-rays, bone scans)” value in data set [1] (higher dosage) was “stable disease and partial or complete remission in many patients”. In addition, the “progress of metastatic disease (CAT scans, X-rays, bone scans)” value in data set [1] (lower dosage) is reported as “partial remission in many patients”. Besides, in data set [2], the “incidence of hypercalcemia or hypercalciuria” value is reported as “insignificant incidence of hypercalcemia or hypercalciuria”; the “total body calcium, radial and spinal bone densities relative to placebo” value was “significantly higher total body calcium, and radial and spinal bone densities”. Moreover, in the data set on Human keratinocytes, the “DNA synthesis by incorporation of 3H-thymidine” value is on record as “lower DNA synthesis”, the “cell density of cells attached to disks” value was “fewer attached cells”, the cornified envelopes result is “more cornified envelopes” and the transglutaminase activity result is reported as “higher transglutaminase activity”. Also, in data set [3], the “antiproliferative activity, inhibition of thymidine incorporation” value is “potent (and reversible) antiproliferative activity”. The “binding affinity for the vitamin D serum binding protein (in words)” value in data set [4] was “relatively poor binding affinity”. In data set [4] (listed as 1α,24(S)-dihydroxyvitamin D2), the “binding affinity for the vitamin D serum binding protein (in words)” value is on record as “more weakly than does 1,25-(OH)2D3”. Besides, in data set [4] (vitamin D deficient rat serum), the “binding of DBP relative to 25-OH-D3” value is “at least 1000 times weaker”. Besides, in the data set with Hep 3B cells (Experiment 2, substrate 1α-OH-D2 1 μM), the “Rate of Production” value is on record as 4.9 pmol per 10^6 cells/day. The “Rate of Production” value with Hep 3B cells (Experiment 2, substrate 1α-OH-D2 10 μM) was 59 pmol per 10^6 cells/day.
